# Source: article PMC6222544, “Fragment-Based Lead Generation of 5-Phenyl-1H-pyrazole-3-carboxamide Derivatives as Leads for Potent Factor Xia Inhibitors” (Molecules : A Journal of Synthetic Chemistry and Natural …, 2018)
# Like-named read-outs stand apart in the source and are kept apart here.
# Assays:
# [1] = target: T1, human FXIa (Homo sapiens, UniProt P03951); assay: Inhibition of FXIa in vitro (chromogenic substrate assay); assay type: biochemical
# T1 construct: purchased Haematologic Technologies, Essex Junction, VT, USA
# T1 sequence (P03951 388-625 limits assumed): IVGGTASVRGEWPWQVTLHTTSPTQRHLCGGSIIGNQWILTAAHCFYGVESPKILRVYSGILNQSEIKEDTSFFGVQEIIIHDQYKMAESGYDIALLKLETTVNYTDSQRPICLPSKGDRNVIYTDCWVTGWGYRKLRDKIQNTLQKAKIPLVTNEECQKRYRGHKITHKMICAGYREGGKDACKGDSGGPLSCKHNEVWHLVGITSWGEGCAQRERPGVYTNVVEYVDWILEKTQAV
# T1 sequence (P03951 19-387 partner limits assumed): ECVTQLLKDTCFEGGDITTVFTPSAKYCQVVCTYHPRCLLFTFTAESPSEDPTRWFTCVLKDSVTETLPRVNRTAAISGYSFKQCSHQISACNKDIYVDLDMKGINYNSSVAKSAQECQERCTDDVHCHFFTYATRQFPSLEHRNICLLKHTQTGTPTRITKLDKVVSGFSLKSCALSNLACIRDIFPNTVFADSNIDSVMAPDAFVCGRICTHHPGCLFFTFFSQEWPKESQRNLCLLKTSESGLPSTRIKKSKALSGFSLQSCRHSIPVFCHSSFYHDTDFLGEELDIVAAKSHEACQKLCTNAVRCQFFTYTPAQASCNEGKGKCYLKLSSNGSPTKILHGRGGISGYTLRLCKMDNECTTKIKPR
# Procedure: The negative controlwas composed of the same mixed solutions except replacing test compound with DMSO. […] The IC50 was calculated by IBM SPSS Statistics 22.0 (IBM Inc., North Castle, NY, USA) and the Probit function in it. IC50 values were converted to Ki values by the followingrelationship:Ki = IC50/(1 + [S]/Km)
# [2] = Table 1 values, read-out: FXIa inhibitory potency (Ki)
# [3] = human FXIa, chromogenic substrate BIOPHEN CS-21(66), 37 °C, pH 7.4, Ki = IC50/(1 + [S]/Km), read-out: Ki
Structure (SMILES),"Ki [1, 2] [µM]",melting point,"Ki [1, 3] [µM]"
"O=C(O)c1cc2cc(NC(=O)[C@H](Cc3cccnc3)NC(=O)c3cc(-c4cccc(Cl)c4F)n[nH]3)ccc2[nH]1 [Compound 7v, (S)-5-(2-(3-(3-Chloro-2-fluorophenyl)-1H-pyrazole-5-carboxamido)-3-(pyridin-3-yl)propanamido)-1H-indole-2-carboxylic acid]",3.52,175 to 177 °C (dec.),
"O=C(O)c1ccc(NC(=O)[C@H](Cc2ccccc2)NC(=O)c2cc(-c3ccccc3Cl)[nH]n2)cc1 [Compound 7d, (S)-4-(2-(5-(2-Chlorophenyl)-1H-pyrazole-3-carboxamido)-3-phenylpropanamido)benzoic acid]",,92 to 94 °C (dec.),> 84.5
"CC(=O)N1CCN(C(=O)C[C@H](NC(=O)c2cc(-c3cccc(Cl)c3F)[nH]n2)C(=O)Nc2ccc3[nH]c(C(=O)O)cc3c2)CC1 [Compound 7x, (S)-5-(4-(4-Acetylpiperazin-1-yl)-2-(5-(3-chloro-2-fluorophenyl)-1H-pyrazole-3-carboxamido)-4-oxobutanamido)-1H-indole-2-carboxylic acid]",81.2,,
"O=C(O)c1cc2cc(NC(=O)[C@H](Cc3ccccn3)NC(=O)c3cc(-c4cccc(Cl)c4F)n[nH]3)ccc2[nH]1 [Compound 7w, (S)-5-(2-(3-(3-Chloro-2-fluorophenyl)-1H-pyrazole-5-carboxamido)-3-(pyridin-2-yl)propanamido)-1H-indole-2-carboxylic acid]",8.99,192 to 194 °C (dec.),
"O=C(O)c1ccc(NC(=O)[C@H](Cc2ccccc2)NC(=O)c2cc(-c3cccc(Cl)c3)[nH]n2)cc1 [Compound 7a, (S)-4-(2-(5-(3-Chlorophenyl)-1H-pyrazole-3-carboxamido)-3-phenylpropanamido)benzoic acid]",,147 to 149 °C (dec.),46.7
"O=C(O)c1ccc(NC(=O)[C@H](Cc2ccccc2)NC(=O)c2cc(-c3cccc(Cl)c3F)[nH]n2)cc1 [Compound 7f, (S)-4-(2-(5-(3-Chloro-2-fluorophenyl)-1H-pyrazole-3-carboxamido)-3-phenylpropanamido)benzoic acid]",,185 to 187 °C (dec.),29.3
"CCc1c(C(=O)N[C@@H](Cc2ccccc2)C(=O)Nc2ccc(C(=O)O)cc2)n[nH]c1-c1cccc(Cl)c1 [Compound 7n, (S)-4-(2-(5-(3-Chlorophenyl)-4-ethyl-1H-pyrazole-3-carboxamido)-3-phenylpropanamido)benzoic acid]",,126 to 128 °C (dec.),> 84.5
"O=C(O)c1ccc(NC(=O)[C@H](Cc2ccccc2)NC(=O)c2cc(-c3ccccc3F)[nH]n2)cc1 [Compound 7c, (S)-4-(2-(5-(2-Fluorophenyl)-1H-pyrazole-3-carboxamido)-3-phenylpropanamido)benzoic acid]",,86 to 88 °C (dec.),> 84.5
"O=C(O)c1cc2cc(NC(=O)[C@H](Cc3ccccc3)NC(=O)c3cc(-c4c(F)ccc(Cl)c4F)n[nH]3)ccc2[nH]1 [Compound 7p, (S)-5-(2-(3-(3-Chloro-2,6-difluorophenyl)-1H-pyrazole-5-carboxamido)-3-phenylpropanamido)-1H-indole-2-carboxylic acid]",,164 to 166 °C (dec.),8.4
"O=C(O)c1ccc(NC(=O)[C@H](Cc2ccccc2)NC(=O)c2cc(-c3cc(Cl)ccc3F)[nH]n2)cc1 [Compound 7h, (S)-4-(2-(5-(5-Chloro-2-fluorophenyl)-1H-pyrazole-3-carboxamido)-3-phenylpropanamido)benzoic acid]",,179 to 181 °C (dec.),> 84.5
"O=C(O)c1cc2cc(NC(=O)[C@H](Cc3ccccc3)NC(=O)c3cc(-c4cccc(Cl)c4F)n[nH]3)ccc2[nH]1 [Compound 7o, (S)-5-(2-(3-(3-Chloro-2-fluorophenyl)-1H-pyrazole-5-carboxamido)-3-phenylpropanamido)-1H-indole-2-carboxylic acid]",1.97,172 to 174 °C (dec.),
"Nc1ccc(C[C@H](NC(=O)c2cc(-c3cccc(Cl)c3F)[nH]n2)C(=O)Nc2ccc3[nH]c(C(=O)O)cc3c2)cc1 [Compound 7z, (S)-5-(3-(4-Aminophenyl)-2-(5-(3-chloro-2-fluorophenyl)-1H-pyrazole-3-carboxamido)propanamido)-1H-indole-2-carboxylic acid]",,209 to 211 °C (dec.),4.1
"O=C(O)c1ccc(NC(=O)[C@H](Cc2ccccc2)NC(=O)c2cc(-c3ccc(Cl)cc3F)[nH]n2)cc1 [Compound 7g, (S)-4-(2-(5-(4-Chloro-2-fluorophenyl)-1H-pyrazole-3-carboxamido)-3-phenylpropanamido)benzoic acid]",,143 to 145 °C (dec.),> 84.5
"O=C(O)c1ccc(NC(=O)[C@H](Cc2ccccc2)NC(=O)c2cc(-c3c(F)cc(Cl)cc3F)[nH]n2)cc1 [Compound 7l, (S)-4-(2-(5-(4-Chloro-2,6-difluorophenyl)-1H-pyrazole-3-carboxamido)-3-phenylpropanamido)benzoic acid]",,123 to 125 °C (dec.),> 84.5
"O=C(O)c1ccc(NC(=O)[C@H](Cc2ccccc2)NC(=O)c2cc(-c3ccc(Cl)cc3)[nH]n2)cc1 [Compound 7e, (S)-4-(2-(5-(4-Chlorophenyl)-1H-pyrazole-3-carboxamido)-3-phenylpropanamido)benzoic acid]",,174 to 176 °C (dec.),> 84.5
"O=C(O)c1cc2cc(NC(=O)[C@H](Cc3ccncc3)NC(=O)c3cc(-c4cccc(Cl)c4F)n[nH]3)ccc2[nH]1 [Compound 7u, (S)-5-(2-(3-(3-Chloro-2-fluorophenyl)-1H-pyrazole-5-carboxamido)-3-(pyridin-4-yl)propanamido)-1H-indole-2-carboxylic acid]",13.3,199 to 201 °C (dec.),
"O=C(O)c1cc2cc(NC(=O)[C@H](Cc3cccc(F)c3)NC(=O)c3cc(-c4cccc(Cl)c4F)n[nH]3)ccc2[nH]1 [Compound 7t, (S)-5-(2-(3-(3-Chloro-2-fluorophenyl)-1H-pyrazole-5-carboxamido)-3-(3-fluorophenyl)propanamido)-1H-indole-2-carboxylic acid]",1.66,174 to 176 °C (dec.),
"O=C(O)c1ccc(NC(=O)[C@H](Cc2ccccc2)NC(=O)c2cc(-c3c(F)cccc3Cl)[nH]n2)cc1 [Compound 7i, (S)-4-(2-(5-(2-Chloro-6-fluorophenyl)-1H-pyrazole-3-carboxamido)-3-phenylpropanamido)benzoic acid]",,203 to 205 °C (dec.),> 84.5
"Cc1c(C(=O)N[C@@H](Cc2ccccc2)C(=O)Nc2ccc3[nH]c(C(=O)O)cc3c2)n[nH]c1-c1cccc(Cl)c1 [Compound 7q, (S)-5-(2-(3-(3-Cchlorophenyl)-4-methyl-1H-pyrazole-5-carboxamido)-3-phenylpropanamido)-1H-indole-2-carboxylic acid]",,154 to 156 °C (dec.),8.94
"O=C(O)c1cc2cc(NC(=O)[C@H](Cc3ccc(F)cc3)NC(=O)c3cc(-c4cccc(Cl)c4F)n[nH]3)ccc2[nH]1 [Compound 7s, (S)-5-(2-(3-(3-Chloro-2-fluorophenyl)-1H-pyrazole-5-carboxamido)-3-(4-fluorophenyl)propanamido)-1H-indole-2-carboxylic acid]",0.93,186 to 188 °C (dec.),
"O=C(N[C@@H](Cc1ccc(N2CCOCC2=O)cc1)C(=O)Nc1ccc2[nH]c(C(=O)O)cc2c1)c1cc(-c2cccc(Cl)c2F)[nH]n1 [Compound 7zc, (S)-5-(2-(5-(3-Chloro-2-fluorophenyl)-1H-pyrazole-3-carboxamido)-3-(4-(3-oxomorpholino)phenyl)-propanamido)-1H-indole-2-carboxylic acid]",,200 to 202 °C (dec.),4.82
"O=C(O)c1ccc(NC(=O)[C@H](Cc2ccccc2)NC(=O)c2cc(-c3ccccc3)[nH]n2)cc1 [Compound 7b, (S)-4-(3-Phenyl-2-(5-phenyl-1H-pyrazole-3-carboxamido)propanamido)benzoic acid]",,137 to 139 °C (dec.),> 84.5
"O=C(O)c1ccc(NC(=O)[C@H](Cc2ccccc2)NC(=O)c2cc(-c3c(F)cccc3F)[nH]n2)cc1 [Compound 7j, (S)-4-(2-(5-(2,6-Difluorophenyl)-1H-pyrazole-3-carboxamido)-3-phenylpropanamido)benzoic acid]",,205 to 207 °C (dec.),> 84.5
"Cc1c(C(=O)N[C@@H](Cc2ccccc2)C(=O)Nc2ccc(C(=O)O)cc2)n[nH]c1-c1cccc(Cl)c1 [Compound 7m, (S)-4-(2-(5-(3-Chlorophenyl)-4-methyl-1H-pyrazole-3-carboxamido)-3-phenylpropanamido)benzoic acid]",,164 to 166 °C (dec.),37.1
"O=C(O)c1cc2cc(NC(=O)[C@H](CC(=O)N3CCOCC3)NC(=O)c3cc(-c4cccc(Cl)c4F)n[nH]3)ccc2[nH]1 [Compound 7y, (S)-5-(2-(3-(3-Chloro-2-fluorophenyl)-1H-pyrazole-5-carboxamido)-4-morpholino-4-oxobutanamido)-1H-indole-2-carboxylic acid]",64,175 to 177 °C (dec.),
"CN1CCN(C(=O)Nc2ccc(C[C@H](NC(=O)c3cc(-c4cccc(Cl)c4F)[nH]n3)C(=O)Nc3ccc4[nH]c(C(=O)O)cc4c3)cc2)CC1 [Compound 7zb, (S)-5-(2-(5-(3-Chloro-2-fluorophenyl)-1H-pyrazole-3-carboxamido)-3-(4-(4-methylpiperazine-1-carboxamido)phenyl)propanamido)-1H-indole-2-carboxylic acid]",,203 to 205 °C (dec.),1.94
